Test results published in US20090247495A1, “CU[…] AND USES THEREOF” (priority 2007, published 2009).
“Also recorded” adds a separate entry of the source.

Legend:
K562 cells = experiment: Flow cytometry for cell cycle analysis, K562; format: cell-based, human; conditions: 80 nM, 48 hours, serum starved 24 hours
Description: K562 cells were serum starved for 24 hours prior to cucurbitacin B treatment. After 48 hours of treatment, the cells were collected and rinsed twice with phosphate-buffer saline and fixed with 80% ice-cold ethanol for […]. Then, the cells were stained with propidium iodine at 1 mg/ml for 15 minutes at room temperature. The stained cells were analyzed by flow cytometry (FACS Calibur BD Flow Cytometer) • 6.1.6 Western Blot Analysis
Appropriate numbers of cell density were serum starved for 24 hours prior to treatment with different doses of cucurbitacin B for 2 days. The cell cycle analysis profile of K562 cells after cucurbitacin B treatment were detected using Flow Cytometry analysis after fixed with 80% ice-cold ethanol at 4° C. and then stained with PI for 15 minutes.

Raf/Mek/Erk pathway = experiment: Western blot of phosphorylated c-Raf, Mek1/2, Erk1/2 and Elk-1 in K562 cells; format: cell-based, human; conditions: 50 μM
Description: K562 leukemia cells were serum starved for 18 hours prior to cucurbitacin B treatment. The cells were incubated at a 75-mm culture flask filled with 10 ml growth medium (RPMI with 10% FBS and 1% PS) at the cell density of 1×10^5 cells/ml in the presence or absence of cucurbitacin B for various time intervals. The drug treatment were terminated by centrifugation at 1500 rpm for 5 minutes and the cells were rinsed twice with phosphate-buffered saline and lysed at 4° C. in a lysis buffer containing 50 mM Tris-HCl, pH7.5, […], 5 mM EDTA, 40 mM NaP2O7, 1% Triton X-100, 1 mM dithiothreitol, 200 μM Na3VO4, 100 μM phenylmethysufonyl fluoride, 2 μg/ml leupeptin, 4 μg/ml aprotinin and 0.7 μg/ml pepstatin. The insoluble protein lysate were removed by centrifugation for 10 minutes at 13000 rpm. Fifteen micrograms of protein lysate was resolved using SDS-polyacryamide gel electrophoresis (PAGE) (usually 8%-12% polyacrylamide gel) and then subjected to western blot anaylsis. Western blots were performed with antibodies specific for phosphorylated and total Stat3, c-Raf, Mek, and Erk. […]
In order to further investigate if cucurbitacin B block the Stat3 activation is truly through Erk pathway in K562 cells, the ability of cucurbitacin B to inhibit the Ras/Raf/Mek/Erk pathway was determined by measuring Ras-GTP, phosphorylation of c-Raf, Mek1/2, Erk1/2 and Elk-1 in K562 cells. […]

HL60 and U937 cells = experiment: Cell cycle analysis by flow cytometry, myeloid leukemia cells; format: cell-based, human; conditions: 96 hours
Description: HL60 and U937 cells were incubated with vary doses of cucurbitacin B for 96 hours at 37° C. For analysis of cell differentiaion, cells were then incubated with either R-phycoerythrin-conjugated murine anti-human CD11b antibody (DAKO, Carpinteria, Calif.). For analysis of cell cycle, cells were washed and fixed with chilled methanol, and incubated on ice for 30 minutes prior to staining with propidium iodide. All analyses were performed by flow cytometry.

[1] = Gross and microscopic examination of organs of treated mice; format: in vivo, nude mice; conditions: i.p. 1 mg/kg three times a week, six weeks
Description: One million human MDA-MB-231 breast cancer cells/Matrigel (vol 1:1) were inoculated isotopically into the breasts of nude mice. The mice received intraperitoneal injections of 1 mg/ml of cucurbitacin B 3 times a week starting on the day after inoculation of the cells. The longitudinal and the transverse diameter, and the height were measured once a week. The volume was calculated by multiplying these elements, and the relative tumor size was determined by dividing the product by the initial volume. After 6 weeks, the mice were sacrificed to weigh the dissected tumors. At that moment, blood was taken for analysis, where organs and tumors were inspected, dissected, fixed and stained with hematoxylin-eosin and/or Ki-67. Data were expressed as mean±SD. Statistical analysis was performed by student's t test.
Six weeks after i.p. treatment with either vehicle or cucurbitacin B 1 mg/kg three times a week, mice were euthanized and tumors were observed and weighed. Results represented the mean and SD of 9 treated and 9 control tumors. Statistical analysis was performed by student's t test.

Prostate cancer = experiment: SRB growth inhibition, prostate cancer lines of the NCI panel; format: cell-based; conditions: Homo sapiens, 48 hours
Description: Human cancer cell lines from the 59-NCI Cancer Cell Line Panel including leukemia, melanoma and cancers of breast, brain, colon, lung, ovary, prostate and kidney, were purchased from the National Institute of Cancer (USA). The growth inhibition (GI50) of these cell lines treated with cucurbitacin B and cucurbitacin D in various concentrations was investigated.
59 human cancer cell lines were maintained in RPMI 1640 (Invitrogen Life Technologies, CA, USA) supplemented with 5% Fetal Bovine Serum, 2 mM L-glutamine and 1% Penicillin/Streptomycin (Invitrogen Life Technologies) at 37° C. with 5% CO2. All chemicals were purchased from Sigma (St. Louis, Mo., USA) unless specified otherwise.
Sulforhodamine B (SRB) assay was applied to determine the cytostatic effect of cucurbitacin B and cucurbitacin D. SRB is a dye that binds to cellular proteins and will be dissolved in base. The biomass of total protein can be measured at 520 nm using a plate reader.
Cells were inoculated into 96-well microtiter plates including “Time zero” (Tz) plates in 100 μl at cell concentrations from 5000 to 40,000 cells per well according to NCI guideline. The cells were incubated at 37° C. with 5% CO2 for 24 hours. […] Bound SRB was solubilized with 100-200 ul per well of 10 mM trizma base and absorbance was measured at a wavelength of 520 nm. The percentage of growth inhibition was calculated as follows: […]

With `CC(=O)OC(C)(C)/C=C/C(=O)[C@](C)(O)C1[C@H](O)C[C@@]2(C)C3CC=C4C(C[C@H](O)C(=O)C4(C)C)[C@]3(C)C(=O)C[C@]12C` (stereo partly drawn) [cucurbitacin B] the “percentage in the G2/M phase” value (K562 cells) was 70%, the “activation (phosphorylation) of c-Raf, Mek1/2, Erk1/2 and Elk-1” value (Raf/Mek/Erk pathway; 5 minutes treatment) was “significantly inhibited; also recorded: significant disruption” and the “inhibition of the Raf/Mek/Erk pathway” value (Raf/Mek/Erk pathway; 4 hours) was “Complete inhibition”. The cell cycle effect (HL60 and U937 cells) was “significant S-phase cell cycle arrest”, the “gross and microscopic examination of the liver, spleen, and peritoneum” value [1] was “no significant difference” and the GI50 (Prostate cancer) was 17 nM.
